Source: ChEMBL document CHEMBL1201862, “PubChem BioAssay data set” (2004)
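Protocol summary: plate cells (96-well), add compound at 5 concentrations, incubate 48 h, interpolate endpoints linearly. The concentration for 50% growth inhibition is given as GI50.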 The source made the active and inactive calls. Cut-off read from the data, not from the text of the source: active = GI50 up to about 1.1 µM and inactive = higher.

Assays:
Assay in all cases: growth of human tumour cells (NCI), 48 h
XF498 = system: XF498
SF-539 = system: SF-539
SK-MEL-2 = system: SK-MEL-2
U-251 = system: U-251
SN12C = system: SN12C
LOX IMVI = system: LOX IMVI
HL-60 = system: HL-60
UACC-62 = system: UACC-62
M19-MEL = system: M19-MEL
DMS-114 = system: DMS-114
A498 = system: A498
SF-295 = system: SF-295
K562 = system: K562
NCI-H522 = system: NCI-H522
TK-10 = system: TK-10
NCI-H460 = system: NCI-H460
CAKI-1 = system: CAKI-1
DLD-1 = system: DLD-1
786-0 = system: 786-0
A549 = system: A549
M14 = system: M14
UACC-257 = system: UACC-257
SF-268 = system: SF-268
SK-OV-3 = system: SK-OV-3
SNB-78 = system: SNB-78
NCI-H23 = system: NCI-H23
UO-31 = system: UO-31
SNB-75 = system: SNB-75
SW-620 = system: SW-620
EKVX = system: EKVX
COLO 205 = system: COLO 205
SK-MEL-28 = system: SK-MEL-28
SK-MEL-5 = system: SK-MEL-5
HCT-15 = system: HCT-15
MOLT-4 = system: MOLT-4
DMS-273 = system: DMS-273
RPMI-8226 = system: RPMI-8226
HCT-116 = system: HCT-116
KM12 = system: KM12
OVCAR-3 = system: OVCAR-3
HOP-92 = system: HOP-92
CCRF-CEM = system: CCRF-CEM
SR = system: SR
OVCAR-4 = system: OVCAR-4
RXF 393 = system: RXF 393
OVCAR-8 = system: OVCAR-8
ACHN = system: ACHN
HOP-62 = system: HOP-62
KM-20L2 = system: KM-20L2
SNB-19 = system: SNB-19
NCI-H226 = system: NCI-H226
IGROV-1 = system: IGROV-1
HT-29 = system: HT-29
Malme-3M = system: Malme-3M
HCC 2998 = system: HCC 2998
LXFL 529 = system: LXFL 529
HOP-18 = system: HOP-18
OVCAR-5 = system: OVCAR-5

With `c1cnn(CN(Cn2cccn2)Cn2cccn2)c1` the GI50 (XF498) was > 100 µM (inactive), the GI50 (SF-539) was > 100 µM (inactive) and the GI50 (SK-MEL-2) was > 100 µM (inactive). The GI50 (U-251) was > 100 µM (inactive), the GI50 (SN12C) was > 100 µM (inactive) and the GI50 (LOX IMVI) was > 100 µM (inactive). The GI50 (HL-60) was > 100 µM (inactive), the GI50 (UACC-62) was 35.9 µM (inactive) and the GI50 (M19-MEL) was > 100 µM (inactive). The GI50 (DMS-114) was > 100 µM (inactive), the GI50 (A498) was > 100 µM (inactive) and the GI50 (SF-295) was > 100 µM (inactive). For the same compound, the GI50 (K562) was > 100 µM (inactive), the GI50 (NCI-H522) was > 100 µM (inactive) and the GI50 (TK-10) was > 100 µM (inactive). The GI50 (NCI-H460) was > 100 µM (inactive), the GI50 (CAKI-1) was > 100 µM (inactive) and the GI50 (DLD-1) was > 100 µM (inactive). The GI50 (786-0) was > 100 µM (inactive), the GI50 (A549) was > 100 µM (inactive) and the GI50 (M14) was > 100 µM (inactive). The GI50 (UACC-257) was > 100 µM (inactive), the GI50 (SF-268) was > 100 µM (inactive) and the GI50 (SK-OV-3) was > 100 µM (inactive). The GI50 (SNB-78) was > 100 µM (inactive), the GI50 (NCI-H23) was > 100 µM (inactive) and the GI50 (UO-31) was > 100 µM (inactive). The GI50 (SNB-75) was > 100 µM (inactive), the GI50 (SW-620) was > 100 µM (inactive) and the GI50 (EKVX) was > 100 µM (inactive). For the same compound, the GI50 (COLO 205) was > 100 µM (inactive), the GI50 (SK-MEL-28) was > 100 µM (inactive) and the GI50 (SK-MEL-5) was > 100 µM (inactive). For the same compound, the GI50 (HCT-15) was greater than 100 µM, the GI50 (MOLT-4) was > 100 µM (inactive) and the GI50 (DMS-273) was > 100 µM (inactive). The GI50 (RPMI-8226) was 35.5 µM (inactive), the GI50 (HCT-116) was > 100 µM (inactive) and the GI50 (KM12) was > 100 µM (inactive). For the same compound, the GI50 (OVCAR-3) was > 100 µM (inactive), the GI50 (HOP-92) was > 100 µM (inactive) and the GI50 (CCRF-CEM) was > 100 µM (inactive). The GI50 (SR) was > 100 µM (inactive), the GI50 (OVCAR-4) was > 100 µM (inactive) and the GI50 (RXF 393) was > 100 µM (inactive). The GI50 (OVCAR-8) was > 100 µM (inactive), the GI50 (ACHN) was > 100 µM (inactive) and the GI50 (HOP-62) was > 100 µM (inactive). The GI50 (KM-20L2) was > 100 µM (inactive) and the GI50 (SNB-19) was > 100 µM (inactive).
`COC(=O)C(=O)C(C(=O)C=C(C)C)C(=O)C(=O)Nc1nc2ccc([N+](=O)[O-])cc2s1` (centres undefined) was tested, and the GI50 (NCI-H226) was 46.1 µM (inactive), the GI50 (SF-539) was 36.6 µM (inactive) and the GI50 (SK-MEL-2) was 49.5 µM (inactive). The GI50 (U-251) was 49.8 µM (inactive), the GI50 (SN12C) was 37.9 µM (inactive) and the GI50 (IGROV-1) was 24.9 µM (inactive). The GI50 (LOX IMVI) was 56.4 µM (inactive), the GI50 (HL-60) was 35.4 µM (inactive) and the GI50 (UACC-62) was 38.5 µM (inactive). For the same compound, the GI50 (HT-29) was > 100 µM (inactive), the GI50 (Malme-3M) was > 100 µM (inactive) and the GI50 (M19-MEL) was > 100 µM (inactive). The GI50 (DMS-114) was 31.4 µM (inactive), the GI50 (HCC 2998) was 46.6 µM (inactive) and the GI50 (A498) was 30.5 µM (inactive). For the same compound, the GI50 (K562) was 46.2 µM (inactive), the GI50 (NCI-H522) was 23.7 µM (inactive) and the GI50 (TK-10) was 38.5 µM (inactive). The GI50 (NCI-H460) was 72.8 µM (inactive), the GI50 (CAKI-1) was 29.5 µM (inactive) and the GI50 (DLD-1) was 51.8 µM (inactive). The GI50 (786-0) was > 100 µM (inactive), the GI50 (A549) was 78.7 µM (inactive) and the GI50 (M14) was 52 µM (inactive). For the same compound, the GI50 (UACC-257) was 79.8 µM (inactive), the GI50 (SF-268) was 39 µM (inactive) and the GI50 (LXFL 529) was 83.4 µM (inactive). For the same compound, the GI50 (SK-OV-3) was 39.9 µM (inactive), the GI50 (SNB-78) was 58.2 µM (inactive) and the GI50 (NCI-H23) was 24.9 µM (inactive). The GI50 (UO-31) was 41.5 µM (inactive), the GI50 (SNB-75) was 21.4 µM (inactive) and the GI50 (SW-620) was > 100 µM (inactive). The GI50 (EKVX) was 33.9 µM (inactive), the GI50 (COLO 205) was > 100 µM (inactive) and the GI50 (HOP-18) was 4.51 µM (inactive). The GI50 (SK-MEL-28) was 63.2 µM (inactive), the GI50 (OVCAR-5) was > 100 µM (inactive) and the GI50 (SK-MEL-5) was 35.7 µM (inactive). The GI50 (HCT-15) was 50.6 µM, the GI50 (MOLT-4) was 36.4 µM (inactive) and the GI50 (DMS-273) was 47.6 µM (inactive). For the same compound, the GI50 (RPMI-8226) was 28.4 µM (inactive), the GI50 (HCT-116) was 50 µM (inactive) and the GI50 (KM12) was 98.9 µM (inactive). For the same compound, the GI50 (OVCAR-3) was 44.6 µM (inactive), the GI50 (HOP-92) was 27.3 µM (inactive) and the GI50 (CCRF-CEM) was 38.7 µM (inactive). For the same compound, the GI50 (OVCAR-4) was 52.5 µM (inactive), the GI50 (RXF 393) was 12.9 µM (inactive) and the GI50 (OVCAR-8) was > 100 µM (inactive). The GI50 (ACHN) was 33.3 µM (inactive), the GI50 (HOP-62) was 38.4 µM (inactive) and the GI50 (KM-20L2) was > 100 µM (inactive). For the same compound, the GI50 (SNB-19) was > 100 µM (inactive).
With `Cc1cc(C)nc(NS(=O)(=O)c2ccc(Nc3c4ccccc4nc4c(C(=O)N5CCN(CCOS(C)(=O)=O)CC5)cccc34)cc2)n1` the GI50 (NCI-H226) was > 100 µM (inactive), the GI50 (XF498) was > 100 µM (inactive) and the GI50 (SF-539) was > 100 µM (inactive). The GI50 (SK-MEL-2) was > 100 µM (inactive), the GI50 (U-251) was 67 µM (inactive) and the GI50 (SN12C) was > 100 µM (inactive). The GI50 (IGROV-1) was > 100 µM (inactive), the GI50 (HL-60) was > 100 µM (inactive) and the GI50 (UACC-62) was > 100 µM (inactive). The GI50 (HT-29) was > 100 µM (inactive), the GI50 (Malme-3M) was > 100 µM (inactive) and the GI50 (M19-MEL) was > 100 µM (inactive). The GI50 (DMS-114) was 99.1 µM (inactive), the GI50 (HCC 2998) was > 100 µM (inactive) and the GI50 (A498) was > 100 µM (inactive). The GI50 (SF-295) was > 100 µM (inactive), the GI50 (K562) was 53.2 µM (inactive) and the GI50 (TK-10) was > 100 µM (inactive). The GI50 (NCI-H460) was 84.9 µM (inactive), the GI50 (CAKI-1) was > 100 µM (inactive) and the GI50 (DLD-1) was > 100 µM (inactive). For the same compound, the GI50 (A549) was > 100 µM (inactive), the GI50 (M14) was > 100 µM (inactive) and the GI50 (UACC-257) was > 100 µM (inactive). For the same compound, the GI50 (SF-268) was > 100 µM (inactive), the GI50 (SK-OV-3) was > 100 µM (inactive) and the GI50 (SNB-78) was > 100 µM (inactive). For the same compound, the GI50 (NCI-H23) was > 100 µM (inactive), the GI50 (UO-31) was > 100 µM (inactive) and the GI50 (SNB-75) was 49.9 µM (inactive). The GI50 (COLO 205) was > 100 µM (inactive), the GI50 (SK-MEL-28) was > 100 µM (inactive) and the GI50 (OVCAR-5) was > 100 µM (inactive). For the same compound, the GI50 (SK-MEL-5) was > 100 µM (inactive), the GI50 (HCT-15) was greater than 100 µM and the GI50 (MOLT-4) was 60.3 µM (inactive). The GI50 (RPMI-8226) was > 100 µM (inactive), the GI50 (HCT-116) was > 100 µM (inactive) and the GI50 (KM12) was > 100 µM (inactive). For the same compound, the GI50 (OVCAR-3) was 96.4 µM (inactive), the GI50 (HOP-92) was > 100 µM (inactive) and the GI50 (CCRF-CEM) was 72.9 µM (inactive). For the same compound, the GI50 (OVCAR-4) was > 100 µM (inactive), the GI50 (RXF 393) was > 100 µM (inactive) and the GI50 (OVCAR-8) was > 100 µM (inactive). For the same compound, the GI50 (ACHN) was > 100 µM (inactive), the GI50 (HOP-62) was > 100 µM (inactive) and the GI50 (KM-20L2) was > 100 µM (inactive). The GI50 (SNB-19) was > 100 µM (inactive).
